A short description of series [1]: AUC (0-infinity) in CD1 mouse plasma at 40 mg/kg, po administered as single dose. It is filed as ADME, organism-based. Further details: time infinity, dose 40 mg/kg, route oral.
In series [2] the test system is Mycobacterium tuberculosis. Description: microbe, parasite or virus in culture. As to conditions: H37Rv.
Series [3] can be described thus: AUC (0-infinity) in CD1 mouse lung at 40 mg/kg, po administered as single dose. The series is classed as ADME, organism-based. On the set-up: time infinity, dose 40 mg/kg, route oral.
Series [4] in a line: physchem. To be noted: water, pH 1.
Description: Solubility of the compound in water at pH 1.0 by HPLC
A short description of series [5]: Thermodynamic solubility in aqueous buffer at pH 1 at 20 degC by HPLC. As to conditions: aqueous buffer. It is filed as physicochemical.
Series [6] is described as follows: Half life in CD1 mouse lung at 40 mg/kg, po administered as single dose. It is filed as ADME, organism-based. Further details: dose 40 mg/kg, route oral.
Series [7] can be described thus: in vitro. As to conditions: human, liver microsomes. In general terms: Microsomes from liver hold many membrane-bound enzymes, among them those of drug oxidation.
Description: Metabolic stability in human liver microsomes assessed as compound remaining after 1 hr
A short description of series [8]: Half life in CD1 mouse plasma at 40 mg/kg, po administered as single dose. The series is classed as ADME, organism-based. On the set-up: dose 40 mg/kg, route oral.
Series [9] in a line: Cmax in CD1 mouse plasma at 40 mg/kg, po administered as single dose. It is filed as ADME, organism-based. Further details: dose 40 mg/kg, route oral.
Series [10] in a line: in vitro. As to conditions: CD1, mouse, liver microsomes.
Description: Metabolic stability in CD1 mouse liver microsomes assessed as compound remaining after 1 hr
Series [11] relates to Mycobacterium tuberculosis. Description: microbe, parasite or virus in culture. To be noted: H37Rv. The source holds these as a separate data set.
Description: Antitubercular activity against Mycobacterium tuberculosis H37Rv by LORA method
Series [12] in a line: Thermodynamic solubility in aqueous buffer at pH 7.4 at 20 degC by HPLC. It is filed as physicochemical.
Series [13] can be described thus: Cmax in CD1 mouse lung at 40 mg/kg, po administered as single dose. It is filed as ADME, organism-based. Further details: dose 40 mg/kg, route oral.
Series [14] is described as follows: Ratio of AUC (0-infinity) in lung to AUC (0-infinity) in plasma of CD1 mouse at 40 mg/kg, po administered as single dose. The series is classed as ADME, organism-based. On the set-up: dose 40 mg/kg, route oral.
Series [15] can be described thus: physchem. To be noted: water, pH 7.
Description: Solubility of the compound in water at pH 7.0 by HPLC
Series [16] in a line: Cmax in Sprague-Dawley rat at 5 mg/kg, iv administered as single dose. Further details: dose 5 mg/kg, route intravenous. To be noted: in vivo. The series is classed as ADME, organism-based.
Series [17] in a line: Tmax in Sprague-Dawley rat at 5 mg/kg, iv administered as single dose. The series is classed as ADME, organism-based. As to conditions: in vivo. On the set-up: dose 5 mg/kg, route intravenous.
A short description of series [18]: Tmax in Sprague-Dawley rat at 20 mg/kg, po administered as single dose. The series is classed as ADME, organism-based. Further details: dose 20 mg/kg, route oral. To be noted: in vivo.
Series [19] can be described thus: AUClast in Sprague-Dawley rat at 5 mg/kg, iv administered as single dose. It is filed as ADME, organism-based. On the set-up: time 0 - last, dose 5 mg/kg, route intravenous. As to conditions: plasma.
Series [20] is described as follows: AUClast in Sprague-Dawley rat at 20 mg/kg, po administered as single dose. As to conditions: plasma. The series is classed as ADME, organism-based. On the set-up: time 0 - last, dose 20 mg/kg, route oral.
Series [21] is described as follows: Half life in Sprague-Dawley rat at 5 mg/kg, iv administered as single dose. It is filed as ADME, organism-based. Further details: dose 5 mg/kg, route intravenous. To be noted: in vivo.
Series [22] is described as follows: Oral bioavailability in Sprague-Dawley rat at 20 mg/kg, po administered as single dose. To be noted: in vivo. The series is classed as ADME, organism-based.
Series [23] is described as follows: Cmax in Sprague-Dawley rat at 20 mg/kg, po administered as single dose. On the set-up: dose 20 mg/kg, route oral. To be noted: in vivo. It is filed as ADME, organism-based.

In brackets after ≈: the same amount, converted by molar mass. Bounds are passed on as bounds.

Usually AUC(0-inf) stands for total exposure, with the tail of the curve extrapolated. The solubility is how much of the substance goes into solution per volume. Low readings indicate little dissolved substance, high ones much dissolved substance. The solubility (thermodynamic) is the concentration in solution at equilibrium with solid. For orientation: half-life means the time needed for the level to fall by half in the phase considered. High values mean slow decline, low ones rapid decline. Usually share remaining stands for the share of the starting amount still present when the sample was taken. Low values mean a greater loss, high ones greater stability. Broadly, the Cmax is the highest concentration seen after dosing. Consider `O=[N+]([O-])c1cn2c(n1)OC[C@@H](OCc1ccc(-c3ccc(OC(F)(F)F)cc3)nn1)C2`, for which the total exposure AUC(0-inf) in series [1] came out at 52000 ng·h/mL; in [3], 94000 ng·h/mL. Besides, the MIC in series [2] worked out at 0.075 µM (≈ 0.0328 µg/mL); in series [11], 1.7 µM (≈ 0.743 µg/mL). In the series “physchem [4]”, this compound showed a solubility of 31 µg/mL (≈ 70.9 µM). In addition, the results for the solubility (thermodynamic) in [5] and in [12] were 10 µg/mL (≈ 22.9 µM) and 3 µg/mL (≈ 6.86 µM), respectively. For the same compound, the half-life in series [6] is 3.4 h; in series [8], 2.9 h. Also, the figures for the amount remaining at 1 h in the series “in vitro [7]” and in “in vitro [10]” were 94% and 92%, respectively. The Cmax was determined as 3600 ng/mL in [9] and 7000 ng/mL in series [13].
Consider `O=[N+]([O-])c1cn2c(n1)OC[C@@H](OCc1ccc(-c3ccc(F)cn3)cc1)C2`, for which the MIC in series [2] was found to be 0.035 µM (≈ 0.013 µg/mL); in [11] it was 1.3 µM (≈ 0.481 µg/mL). The compound further registered a solubility in the series “physchem [4]” of 275 µg/mL (≈ 743 µM). Besides, the fraction remaining at 1 h in the series “in vitro [7]” was 83%; in the series “in vitro [10]”, 61%.
On to `O=[N+]([O-])c1cn2c(n1)OC[C@@H](OCc1cnc(-c3ccc(OC(F)(F)F)cc3)nc1)C2`, for which the AUC(0-inf) was 43000 ng·h/mL in series [1] and 131000 ng·h/mL in series [3]. The MIC in series [2] amounted to 0.027 µM (≈ 0.0118 µg/mL); in series [11], 1.8 µM (≈ 0.787 µg/mL). The compound also registered a solubility in “physchem [4]” of 3 µg/mL (≈ 6.86 µM). Moreover, the thermodynamic solubility in [5] came to 1.5 µg/mL (≈ 3.43 µM); in series [12], 1.2 µg/mL (≈ 2.74 µM). The half-life in [6] was 18 h; in series [8] it was 23 h. In addition, the amount remaining at 1 h in the series “in vitro [7]” is 96%; in the series “in vitro [10]”, 87%. The highest concentration (Cmax) is 1200 ng/mL in series [9] and 4000 ng/mL in series [13].
Regarding `O=[N+]([O-])c1cn2c(n1)OC[C@@H](OCc1ncc(-c3ccc(OC(F)(F)F)cc3)cn1)C2`, the MIC in series [2] stood at 0.11 µM (≈ 0.0481 µg/mL); in [11], 1.9 µM (≈ 0.831 µg/mL). This compound showed a solubility in “physchem [4]” of 5.1 µg/mL (≈ 11.7 µM). Besides, the share remaining at 1 h in “in vitro [7]” amounted to 92%; in “in vitro [10]”, 87%.
As usually defined, the Kp is tissue or fluid exposure divided by exposure in the circulation. Turning to `O=[N+]([O-])c1cn2c(n1)OC[C@@H](OCc1ccc(-c3ccc(C(F)(F)F)cn3)cc1)C2`, the AUC(0-inf) came out at 20000 ng·h/mL in series [1] and 67000 ng·h/mL in series [3]. Further, in series [14], the concentration ratio (Kp) was 3.4. The MIC worked out at 0.06 µM (≈ 0.0252 µg/mL) in series [2] and 1 µM (≈ 0.42 µg/mL) in series [11]. The solubility is 0.2 µg/mL (≈ 0.476 µM) in “physchem [15]” and 5.1 µg/mL (≈ 12.1 µM) in the series “physchem [4]”. The figures for the thermodynamic solubility in series [5] and in series [12] were 0.84 µg/mL (≈ 2 µM) and 0.42 µg/mL (≈ 0.999 µM), respectively. Further, the half-life in series [6] is 10 h; in series [8], 8.8 h. Further, the share remaining at 1 h in “in vitro [7]” stood at 93%; in the series “in vitro [10]”, 90%. Besides, the Cmax was determined as 1100 ng/mL in series [9] and 34000 ng/mL in series [13].
One may read the Tmax as the time from dosing to the highest level. In general, AUC(0-t) refers to the area under the concentration-time curve up to a stated or last time point. A lower AUC(0-t) goes with less exposure. In general, bioavailability refers to dose-corrected exposure relative to a reference, in per cent. Higher therefore signals good availability. On to `O=[N+]([O-])c1cn2c(n1)OC[C@@H](OCc1ccc(-c3ccc(OC(F)(F)F)cc3)cn1)C2`, for which the AUC(0-inf) in series [1] came to 418000 ng·h/mL; in series [3], 427000 ng·h/mL. Further, the maximum concentration (Cmax) turned out to be 8700 ng/mL in series [16], 16000 ng/mL in [23], 26000 ng/mL in series [9] and 35000 ng/mL in [13]. The time to peak (Tmax) was 0.083 h in series [17] and 6 h in series [18]. The AUC(0-t) in series [19] is 35900 ng·h/mL; in series [20], 66700 ng·h/mL. The MIC in [2] amounted to 0.065 µM (≈ 0.0284 µg/mL); in series [11] it was 3.7 µM (≈ 1.61 µg/mL). In addition, the half-life in [21] was greater than 6 h; in series [6], 8.2 h; in [8], 5.4 h. Also, the bioavailability in [22] came out at 46%.
With `O=[N+]([O-])c1cn2c(n1)OC[C@@H](OCc1cncc(-c3ccc(F)cc3)c1)C2`, the MIC in series [2] was found to be 0.31 µM (≈ 0.115 µg/mL); in [11], 7.7 µM (≈ 2.85 µg/mL). Moreover, the solubility stood at 45 µg/mL (≈ 122 µM) in the series “physchem [15]” and 41000 µg/mL (≈ 111000 µM) in “physchem [4]”. Further, the amount remaining at 1 h in the series “in vitro [7]” came to 71%; in the series “in vitro [10]” it was 39%.
`O=[N+]([O-])c1cn2c(n1)OC[C@@H](OCc1ccc(-c3ccnc(F)c3)cc1)C2`: the MIC in series [2] worked out at 0.23 µM (≈ 0.0852 µg/mL); in series [11], 1.4 µM (≈ 0.518 µg/mL). Moreover, the solubility was 14 µg/mL (≈ 37.8 µM) in “physchem [15]” and 15 µg/mL (≈ 40.5 µM) in “physchem [4]”. For the same compound, the amount remaining at 1 h is 93% in “in vitro [7]” and 86% in the series “in vitro [10]”.
On to `O=[N+]([O-])c1cn2c(n1)OC[C@@H](OCc1cnc(-c3ccc(OC(F)(F)F)cc3)cn1)C2`, for which the area under the curve AUC(0-inf) was 152000 ng·h/mL in [1] and greater than 324000 ng·h/mL in series [3]. Besides, the Cmax came to 3900 ng/mL in [16], 7000 ng/mL in [23], 9600 ng/mL in [9] and 23000 ng/mL in [13]. Moreover, the Tmax in [17] stood at 0.167 h; in series [18], 5 h. Moreover, the area under the curve AUC(0-t) in series [19] was determined as 16300 ng·h/mL; in series [20] it was 29400 ng·h/mL. Also, the MIC was 0.023 µM (≈ 0.0101 µg/mL) in series [2] and 1 µM (≈ 0.437 µg/mL) in series [11]. For the same compound, the values for the half-life in [21], in series [6] and in series [8] were 24 h, greater than 8 h and 7.2 h, respectively. Further, the solubility in “physchem [4]” was found to be 2.8 µg/mL (≈ 6.4 µM). Moreover, the thermodynamic solubility in series [5] and in series [12] was 0.44 µg/mL (≈ 1.01 µM) in each case. For the same compound, the bioavailability in series [22] stood at 45%. In addition, the fraction remaining at 1 h in the series “in vitro [7]” came out at 98%.

For the origin of these results see ChEMBL document CHEMBL1629541, “Synthesis and structure-activity relationships of aza- and diazabiphenyl analogues of the antitubercular drug (6S)-2-nitro-6-{[4-(trifluoromethoxy)benzyl]oxy}-6,7-dihydro-5H-imidazo[2,1-b][1,3]oxazine (PA-824)” (J Med Chem, 2010).
